Square brackets hold non-standard residues; d marks the D form. Peptide text beside a SMILES is read from it. Phe(3-F) = N[C@@H](Cc1cccc(F)c1)C(=O)O; hPhe = N[C@@H](CCc1ccccc1)C(=O)O; Abu = CC[C@H](N)C(=O)O; azaGly = NNC(=O)O
Legend:
Human liver cathepsin H = biological target: T1, Human liver cathepsin H (Homo sapiens, UniProt P09668); test: Human liver cathepsin H assay; format: biochemical
T1 construct: Human liver catheptin H (Enzyme System Products Cath-1; 25 μg); purchased Enzyme System Products Cath-1; host or cells: human liver
T1 sequence (P09668 98-335): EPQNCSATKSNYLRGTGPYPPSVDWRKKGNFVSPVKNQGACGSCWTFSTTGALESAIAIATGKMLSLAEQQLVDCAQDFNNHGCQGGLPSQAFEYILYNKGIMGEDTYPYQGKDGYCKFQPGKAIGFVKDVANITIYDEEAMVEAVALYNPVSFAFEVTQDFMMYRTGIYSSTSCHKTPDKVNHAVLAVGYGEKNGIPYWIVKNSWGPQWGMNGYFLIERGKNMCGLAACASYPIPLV
Protocol: Human Liver Cathepsin H Assay
Using this assay, the selectivity of a compound of the invention for hDPP-I over human cathepsin H was determined, using a fluorogenic substrate.
Human liver catheptin H (Enzyme System Products Cath-1; 25 μg) was solubilized in 60 μL enzyme buffer (giving a stock with a concentration of 417 ng/μL). Enzyme stock (5 μL) was diluted with 1245 μL enzyme-buffer. Prior to running experiment 1 μL 0.5 M DTT/100 μL enzyme solution was added. Incubated for 5 minutes on ice, then added to reaction mixture.
ARG-AFC*2HBR (Enzyme System Products AF002; 10.6 mg) was dissolved in 1 mL DMSO, giving a 20 mM solution. Km for this substrate has been determined to be 27 μM
The assay was performed in 96-well plates. 50 μL assay buffer was added to the well followed by 25 μL reference inhibitor (cystatin; stock 1 mg/mL, diluted with assay buffer to give 10 nM in assay) or a compound of the invention (diluted with assay buffer to give 10 μM in the assay). Then 25 μL (40 ng) enzyme was added, and 1 min. later (at 37° C.), 100 μL ARG-AFC substrate (15 μM in the assay) was added. The excitation wavelength was 400 nm, and the emission was measured at 505 nm for 10-20 minutes at 37° C. […] In the software (SOFTmax Pro) used for data collection from the fluorometer (Molecular Devices: Gemini XS) it was ensured that the measured slopes were linear (R^2>0.99). […]

β-tryptase = test: Tryptase assay; format: biochemical, human
Protocol: Using this assay, the selectivity of a compound of the invention for hDPP-I over β-tryptase was determined, using a fluorogenic substrate.
0.1 M HEPES buffer (pH 7.5) with 0.5 M NaCl.
Rh-Skin β-tryptase (Promega # G7061) was diluted to a final stock solution of 0.08 μg/μL in assay buffer.
Rh-lung β-tryptase (Promega # G5631) was diluted to a final stock solution of 0.08 μg/μL in assay buffer.
Z-ARG-AMC*HCl (BACHEM I1130; 10 mg) was dissolved in 1 mL DMSO, giving a 20 mM solution. Km was determined to be >400 μM.
The assay was performed in 96-well plates. 85 μl assay buffer was added to the well followed by 5 μL enzyme stock. Then 5 μL substrate was added, and subsequently 5 μL 4% DMSO in assay buffer (control) or a compound of the invention (10 μM in the assay) The excitation wavelength was 380 nm, and the emission was measured at 460 nm for 10-20 minutes at […] Each measurement was mad in duplicate. In the software (SOFTmax Pro) used for data collection from the fluorometer (Molecular Devices: Gemini XS), it was ensured that the measured slopes were linear (R^2>0.99).
Data were exported to GraphPad Prism and nonlinear regression was performed using the option Sigmoidal dose-response (variable slope).

[1] = biological target: T2, cellular rat DPP-I (RBL-2H3 cells) (Rattus norvegicus, UniProt P80067); test: Cellular DPP-I assay; format: cell-based; details: concentration and time not given
T2 construct: The RBL-2H3 cells (basophilic leukaemia cell line), were obtained from the American Type Culture Collection; endogenous in cells; host or cells: RBL-2H3 cells (ATCC)
T2 sequence (P80067 25-462): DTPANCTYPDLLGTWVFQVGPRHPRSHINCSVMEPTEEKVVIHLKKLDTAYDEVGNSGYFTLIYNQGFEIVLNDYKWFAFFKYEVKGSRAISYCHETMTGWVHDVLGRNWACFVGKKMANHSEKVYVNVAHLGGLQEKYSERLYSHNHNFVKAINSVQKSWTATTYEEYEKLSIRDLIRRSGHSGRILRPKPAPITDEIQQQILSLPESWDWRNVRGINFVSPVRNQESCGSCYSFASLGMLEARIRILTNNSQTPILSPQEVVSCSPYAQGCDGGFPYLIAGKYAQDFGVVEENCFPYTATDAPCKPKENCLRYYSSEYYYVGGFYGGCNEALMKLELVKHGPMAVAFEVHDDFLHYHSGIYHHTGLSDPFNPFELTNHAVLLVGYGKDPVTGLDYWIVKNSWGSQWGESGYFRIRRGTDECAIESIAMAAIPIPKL
Protocol: The following assay was used to the determine the inhibitory effect of compounds of the invention on cellular rat DPP-I.
The RBL-2H3 cells (basophilic leukaemia cell line), were obtained from the American Type Culture Collection. Cells were cultured at 37° C. in humidified air atmosphere with 5% CO2. Cells were grown in complete media (CM) consisting of RPMI (GIBCO) supplemented with 10% heat-inactivated foetal bovine serum (FBS; GIBCO), 100 U/mL penicillin and 100 ug/mL streptomycin (GIBCO).
All cell-based experiments employing inhibitors of DPP-I were performed by addition of the compound (kept below −20° C. as a 10 mM stock solution in DMSO (Sigma)) for indicated time and concentrations to sub-confluent cell cultures growing on culture dishes. All experiments were set up in triplicates. Following the treatment, cells were washed twice in ice-cold PBS (Sigma) and scraped from the culture dish. After another wash in PBS cells were lysed in ice-cold H2O containing 0.3% Triton×100. An additional volume of buffer containing 40 mM MOPS, 2M NaCl, 2 mM EDTA and 20% of glycerol was added. The cell lysate was clarified by centrifugation at 3000 rpm for 10 min. The resulting supernatant was transferred to eppendorf tubes. The Coomassie Plus Protein Assay (Pierece) was used to determine protein levels of the samples.
In Vitro Measurement of DPP-I Activity: […]

For `CC[C@H](N)C(=O)NNC(=O)N[C@@H](CCc1ccccc1)C(=O)N[C@@H](Cc1cccc(F)c1)C(N)=O` [Example 11, 1-(2S-2-Aminobutanoyl)-4-[2S-N-[2S-3-(m-fluorophenyl)propan-2-yl-amide]-4-phenylbutan-2-yl-amide]semicarbazide] (H-[Abu][azaGly][hPhe][Phe(3-F)]-NH2), the “Inhibition of Cathepsin H (in words)” value (Human liver cathepsin H) was “does not inhibit”, the IC50 (Human liver cathepsin H; human liver cathepsin H, read-out: Secondary enzymatic screening (10 μM cutoff or IC50) Cathepsin H) was 3.2 µM and the “Inhibition of tryptase (in words)” value (β-tryptase) was “does not inhibit”. For the same compound, the IC50 (β-tryptase; β-tryptase, 10 μM cutoff, read-out: Secondary enzymatic screening (10 μM cutoff or IC50) Tryptase) was > 10 µM and the “Cellular (% inhibition) DPP-I (RBL-2H3 cells)” value [1] was 54%.
